The record followed here is patent publication US8906868B2, “Aminoglycoside derivatives” (Rempex Pharmaceuticals, Inc., priority 2010, dated 2014).

Assay [1] concerns Staphylococcus aureus (ATCC 29213). Kind of assay: MIC, broth microdilution. The following applies: Staphylococcus aureus.
The subject of assay [2] is Escherichia coli (ATCC 25922). Briefly: MIC, broth microdilution. Particulars: Escherichia coli.
Assay [3] relates to EC1002 aph(3′)-IV. Briefly: organism not typed. Format: cell-based. Particulars: read-out: Compound MIC on Bacterial Strains: EC1002 aph(3′)-IV. The method, then:
(§1) To compare microbiological activity of the test compounds, minimum inhibitory concentrations (MIC.s) were determined. Antibiotic MICs were obtained using the broth microdilution method according to Clinical and Laboratory Standards Institute (CLSI) approved guidelines (Methods for dilution antimicrobial susceptibility tests for bacteria that grow aerobically; approved standard—7th ed. CLSI document M7-A7. Clinical and Laboratory Standards Institute, Wayne, Pa., incorporated herein by reference in its entirety). Antibiotics were dissolved as specified by CLSI (Performance standards for antimicrobial susceptibility testing; Seventeenth informational supplement. CLSI document M100-S17. Clinical and Laboratory Standards Institute, Wayne, Pa., incorporated herein by reference in its entirety), and were serially diluted 2-fold in cation adjusted Mueller Hinton Broth (CaMHB) at 2× concentration. Bacterial inoculums were prepared in CaMHB by suspension of a colony from an agar plate that was prepared the previous day to obtain a final concentration of 5×10^5CFU/ml. The plates were incubated for 18 hours at 35° C. […] MIC.s were determined by reading the turbidity of plate wells using a SpectraMax Plus384 plate reader (Molecular Devices, Sunnyvale, Calif., USA) at 600 nm and were confirmed by visual inspection.
(§2) Activity of the test compounds was determined using QC strains and strains with known aminoglycoside resistance mechanisms (TABLE 3). This specific panel contained strains expressing enzymes that covalently modify N2″, N3 and N3′ positions.

The subject of assay [4] is Pseudomonas aeruginosa (ATCC 27853). Briefly: MIC, broth microdilution. Particulars: Pseudomonas aeruginosa.
Assay [5] has as its system ECM6003 rmtB. Briefly: microbe, parasite or virus in culture. Format: cell-based, Escherichia coli. Particulars: Escherichia coli; Table 3; read-out: Compound MIC on Bacterial Strains: ECM6003 rmtB. The method, then: as §1, §2
The panel also contained a strain expressing ribosomal RNA methylase, RmtB.

Assay [6] relates to PAM3072 aac(6′)-II. Briefly: microbe, parasite or virus in culture. Format: cell-based, Pseudomonas aeruginosa. The following applies: Pseudomonas aeruginosa, Table 5; read-out: Compound MIC on Bacterial Strains: Pseudomonas aeruginosa PAM3072 aac(6′)-II. The method, then: as §1
The test system of assay [7] is PAM3073 aac(6′)-I. Briefly: microbe, parasite or virus in culture. The assay is classed as cell-based, Pseudomonas aeruginosa. The following applies: Pseudomonas aeruginosa, Table 5; read-out: Compound MIC on Bacterial Strains: Pseudomonas aeruginosa PAM3073 aac(6′)-I. The method, then:
as §1

Assay [8] concerns ECM6009 aac(3)-II. Kind of assay: microbe, parasite or virus in culture. The assay is classed as cell-based, Escherichia coli. The following applies: Escherichia coli, read-out: Compound MIC on Bacterial Strains: ECM6009 aac(3)-II. The method, then: as §1, §2
The test system of assay [9] is ECM6010 ant(2″)-I. Kind of assay: microbe, parasite or virus in culture. Format: cell-based, Escherichia coli. The following applies: Escherichia coli, read-out: Compound MIC on Bacterial Strains: ECM6010 ant(2″)-I. The method, then:
as §1, §2

Assay [10] has as its system ECM6011 aph(3′)-I. Kind of assay: microbe, parasite or virus in culture. Particulars: Escherichia coli, read-out: Compound MIC on Bacterial Strains: ECM6011 aph(3′)-I. The assay is classed as cell-based, Escherichia coli. The method, then:
as §1, §2

For assay [11], the system named is ECM6006 aph(3′)-III. Kind of assay: microbe, parasite or virus in culture. The assay is classed as cell-based, Escherichia coli. Particulars: Escherichia coli, read-out: Compound MIC on Bacterial Strains: ECM6006 aph(3′)-III. The method, then:
as §1, §2

In assay [12] the test system is Sa 287 aac(6′) + aph(2″). Briefly: microbe, parasite or virus in culture. Particulars: Staphylococcus aureus, 18 h; Table 5; read-out: Compound MIC on Bacterial Strains: Staphylococcus aureus Sa 287 aac(6′) + aph(2″). The assay is classed as cell-based, Staphylococcus aureus. The method, then:
as §1

Assay [13] deals with ACM1006 acc(6′)-Ib. Briefly: microbe, parasite or virus in culture. The following applies: Acinetobacter baumannii; Table 4; read-out: Compound MIC on Bacterial Strains: Acinetobacter baumannii ACM1006 acc(6′)-Ib. Format: cell-based, Acinetobacter baumannii. The method, then:
as §1

Assay [14] has as its system Klebsiella pneumonia (ATCC 43816). Briefly: MIC, broth microdilution. The following applies: Klebsiella pneumoniae, ATCC43816, read-out: Compound MIC on Bacterial Strains: K. pneumonia ATCC 43816.
Assay [15] relates to ACM1005 ATCC 19004. Briefly: MIC, broth microdilution. The assay is classed as cell-based, Acinetobacter baumannii. Particulars: Acinetobacter baumannii, ATCC19004; Table 4; read-out: Compound MIC on Bacterial Strains: Acinetobacter baumannii ACM1005 ATCC 19004. The method, then: as §1
The test system of assay [16] is EC1001 acc(6′)-Ib. Briefly: microbe, parasite or virus in culture. The assay is classed as cell-based, Escherichia coli. The following applies: Escherichia coli; Table 4; read-out: Compound MIC on Bacterial Strains: Escherichia coli EC1001 acc(6′)-Ib. The method, then: as §1
The subject of assay [17] is ECM6007 aac(6′) + aph(2″). Kind of assay: microbe, parasite or virus in culture. The assay is classed as cell-based, Escherichia coli. Particulars: Escherichia coli, 18 h; Table 4; read-out: Compound MIC on Bacterial Strains: Escherichia coli ECM6007 aac(6′) + aph(2″). The method, then: as §1
The test system of assay [18] is Acinetobacter baumannii (ATCC 19606). Briefly: MIC, broth microdilution. Particulars: Acinetobacter baumannii, ATCC19606, read-out: Compound MIC on Bacterial Strains: A. baumannii ATCC 19606.
The mark [19] stands for this setting: ATCC29213, read-out: Compound MIC on Bacterial Strains: Staphylococcus aureus SAM1000 ATCC 29213, Table 5.
Where [20] appears, read: ATCC25922, read-out: Compound MIC on Bacterial Strains: ECM6000 ATCC 25922.
Setting [21] is: ATCC27853, read-out: Compound MIC on Bacterial Strains: Pseudomonas aeruginosa PAM3034 ATCC 27853.
[22] abbreviates: ATCC29213, read-out: Compound MIC on Bacterial Strains: S. aureus ATCC 29213, QC strain, Table 2.
The mark [23] stands for this setting: ATCC25922, read-out: Compound MIC on Bacterial Strains: E. coli ATCC 25922.
Setting [24] is: ATCC25922, read-out: Compound MIC on Bacterial Strains: Escherichia coli ECM6000 ATCC 25922.
Setting [25] is: ATCC27853, read-out: Compound MIC on Bacterial Strains: P. aeruginosa ATCC 27853.

The structures appear in SMILES notation. Values after ≈ are worked out from the molar mass of the structure shown. Where two headings read alike, the source gives them in different places. Bounds are passed on as bounds.

On to `CN[C@@H]1C(O)[C@@H](OC2C(O)C(O[C@H]3O[C@H](CNCCO)CCC3N)[C@@H](N)C[C@H]2NC(=O)[C@@H](O)[C@@H](O)CN)OCC1(C)O` (some centres unmarked) [Compound 4], for which the MIC was 1 to 8 µg/mL (≈ 1.64 to 13.1 µM) in assay [1] (setting [19]); 1 to 8 µg/mL (≈ 1.64 to 13.1 µM) in assay [2] (setting [20]); 1 to 8 µg/mL (≈ 1.64 to 13.1 µM) in [3]; 1 to 8 µg/mL (≈ 1.64 to 13.1 µM) in assay [4] (setting [21]); greater than 8 µg/mL in [5]; greater than 8 µg/mL in [6]. For the same compound, the MIC is 1 to 8 µg/mL (≈ 1.64 to 13.1 µM) in assay [7]; less than 1 µg/mL in [8]; 1 to 8 µg/mL (≈ 1.64 to 13.1 µM) in [9]; less than 1 µg/mL in assay [10]; 1 to 8 µg/mL (≈ 1.64 to 13.1 µM) in [11]; 1 to 8 µg/mL in assay [12].
On to `CN[C@@H]1[C@@H](O)[C@@H](O[C@@H]2[C@@H](O)[C@H](O[C@H]3O[C@H](CNCCF)CC[C@H]3N)[C@@H](N)C[C@H]2NC(=O)[C@@H](O)CN)OC[C@]1(C)O` [Compound 46, (S)-3-amino-N-((1R,2S,3S,4R,5S)-5-amino-4-((2R,3R,6S)-3-amino-6-((2-fluoroethylamino)methyl)tetrahydro-2H-pyran-2-yloxy)-2-((2R,3R,4R,5R)-3,5-dihydroxy-5-methyl-4-(methylamino)tetrahydro-2H-pyran-2-yloxy)-3-hydroxycyclohexyl)-2-hydroxypropanamide], for which the MIC was 1 to 8 µg/mL (≈ 1.72 to 13.7 µM) in [13]; less than 1 µg/mL in assay [1] (setting [22]); less than 1 µg/mL in assay [1] (setting [19]); less than 1 µg/mL in assay [2] (setting [23]); less than 1 µg/mL in assay [2] (setting [20]); less than 1 µg/mL in assay [2] (setting [24]). The MIC was less than 1 µg/mL in assay [14]; less than 1 µg/mL in [3]; 1 to 8 µg/mL (≈ 1.72 to 13.7 µM) in [15]; 1 to 8 µg/mL (≈ 1.72 to 13.7 µM) in assay [4] (setting [25]); 1 to 8 µg/mL (≈ 1.72 to 13.7 µM) in assay [4] (setting [21]); 1 to 8 µg/mL (≈ 1.72 to 13.7 µM) in assay [16]. Besides, the MIC in [17] was less than 1 µg/mL; in assay [18] it was greater than 8 µg/mL; in assay [5], greater than 8 µg/mL; in [6], greater than 8 µg/mL; in assay [7], 1 to 8 µg/mL (≈ 1.72 to 13.7 µM); in [8], less than 1 µg/mL. The MIC in assay [9], in assay [10] and in [11] was less than 1 µg/mL throughout.
For the compound `NCC[C@H](O)C(=O)N[C@@H]1C[C@H](N)[C@@H](O[C@H]2O[C@H](CN)[C@@H](O)[C@H](O)[C@H]2O)[C@H](O)[C@H]1O[C@H]1O[C@H](CO)[C@@H](O)[C@H](N)[C@H]1O` [Amikacin, reference compound], the MIC is 1 to 8 µg/mL (≈ 1.71 to 13.7 µM) in assay [13]; 1 to 8 µg/mL (≈ 1.71 to 13.7 µM) in assay [1] (setting [22]); less than 1 µg/mL in assay [1] (setting [19]); 1 to 8 µg/mL (≈ 1.71 to 13.7 µM) in [2] (setting [23]); 1 to 8 µg/mL (≈ 1.71 to 13.7 µM) in assay [2] (setting [20]); 1 to 8 µg/mL (≈ 1.71 to 13.7 µM) in assay [2] (setting [24]). Also, the MIC in assay [14] was less than 1 µg/mL; in assay [3] it was greater than 8 µg/mL; in [15] it was less than 1 µg/mL; in assay [4] (setting [25]), 1 to 8 µg/mL (≈ 1.71 to 13.7 µM); in assay [4] (setting [21]), 1 to 8 µg/mL (≈ 1.71 to 13.7 µM); in [16] it was greater than 8 µg/mL. Also, the MIC in [17] is less than 1 µg/mL; in assay [18], 1 to 8 µg/mL (≈ 1.71 to 13.7 µM); in [5] it was greater than 8 µg/mL; in assay [8] it was less than 1 µg/mL; in assay [9], 1 to 8 µg/mL (≈ 1.71 to 13.7 µM); in assay [10], 1 to 8 µg/mL (≈ 1.71 to 13.7 µM). Also, the MIC in [11] was 1 to 8 µg/mL (≈ 1.71 to 13.7 µM); in assay [12] it was greater than 8 µg/mL.
`CN[C@@H]1[C@@H](O)[C@@H](O[C@@H]2[C@@H](O)[C@H](O[C@H]3O[C@H](CNCCO)CC[C@H]3N)[C@@H](N)C[C@H]2NC(=O)[C@@H](O)CCCN)OC[C@]1(C)O` [Compound 40, (S)-5-amino-N-((1R,2S,3S,4R,5S)-5-amino-4-((2R,3R,6S)-3-amino-6-((2-hydroxyethylamino)methyl)tetrahydro-2H-pyran-2-yloxy)-2-((2R,3R,4R,5R)-3,5-dihydroxy-5-methyl-4-(methylamino)tetrahydro-2H-pyran-2-yloxy)-3-hydroxycyclohexyl)-2-hydroxypentanamide]: the MIC in assay [13], in [1] (setting [22]), in assay [1] (setting [19]), in [2] (setting [23]), in [2] (setting [20]) and in assay [2] (setting [24]) was 1 to 8 µg/mL (≈ 1.64 to 13.1 µM) in each case. In addition, the MIC is less than 1 µg/mL in assay [14]; 1 to 8 µg/mL (≈ 1.64 to 13.1 µM) in assay [3]; 1 to 8 µg/mL (≈ 1.64 to 13.1 µM) in [15]; greater than 8 µg/mL in [4] (setting [25]); greater than 8 µg/mL in [4] (setting [21]); 1 to 8 µg/mL (≈ 1.64 to 13.1 µM) in assay [16]. In addition, the MIC was less than 1 µg/mL in [17]; greater than 8 µg/mL in assay [18]; greater than 8 µg/mL in [5]; greater than 8 µg/mL in [6]; 1 to 8 µg/mL (≈ 1.64 to 13.1 µM) in assay [7]; less than 1 µg/mL in [8]. The results for the MIC in [9], in [10] and in assay [11] were less than 1 µg/mL, less than 1 µg/mL and 1 to 8 µg/mL (≈ 1.64 to 13.1 µM), respectively.
